For one test, the system named is rat aortic smooth muscle. The test can be described thus: Vasorelaxation of pre-contracted, endothelium-denuded rat aortic rings in a muscle bath. In kind it is cell-based. To be noted: for potency in vasorelaxation after chemical or formulatory modification of VASP1: compared with VASP1 (FIGS. 6 and 7); for relaxation of rat aortic smooth muscle: phenylephrine-precontracted, endothelium-denuded rat aorta, escalating doses of polypeptide 0.1 to 1.0 mM (FIG. 2). As to the method:
(§1) Freshly isolated rat aorta denuded of endothelium were suspended in a muscle bath and force generated were recorded. Phenylephrine-precontracted tissues were treated with either sodium nitroprusside (1 nM) or escalating doses of the polypeptides indicated (0.1 to 1.0 mM). Contractile response was defined by stress, which was calculated using the force generated by the tissues. [10^5 Newtons (N)/m^2]−force (g)×0.0987/area, where area is equal to the wet weight [(mg)/length (mm at maximal length)] divided by 1.055). Percent relaxation were determined as a change to the maximal phenylephrine-induced contraction. Data are reported as mean responses±standard error of the mean. n=3-17.
FIGS. 4A and B show graphs illustrating the effects of nimodipine on polypeptide induced vasorelaxation in phenylephrine precontracted rat aortic smooth muscle. Freshly isolated rat aorta denuded of endothelium were suspended in a muscle bath and force generated were recorded. Phenylephrine-precontracted tissues were treated either with escalating doses of the calcium channel blocker nimodipine (NIMO; 0.01 to 1 uM), the VASP1 polypeptide (0.1 to 1.0 mM), nimodipine (0.1 μM) followed by the VASP1 polypeptide (0.25 mM) [NIMO/VASP1], the VASP1 polypeptide (0.25 mM) followed by nimodipine (0.1 μM) [VASP1/NIMO], or simultaneous addition of nimodipine (0.1 μM) plus the VASP1 polypeptide (0.25 mM) [NIMO+VASP1]. Contractile response was defined by stress, which was calculated using the force generated by the tissues. [10^5 Newtons (N)/m^2]=force (g)×0.0987/area, where area is equal to the wet weight [(mg)/length (mm at maximal length)] divided by 1.055). (A) Percent relaxation were determined as a change to the maximal phenylephrine-induced contraction. Data are reported as mean responses±standard error of the mean. n=3-4. (B). Representative tracings of force generated in response to phenylephrine, nimodipine and the VASP1 polypeptides.
Freshly isolated rat aorta denuded of endothelium were suspended in a muscle bath and force generated were recorded. (A) Endothelin 1 (ET)-precontracted tissues were treated either with escalating doses of the calcium channel blocker nimodipine (NIMO; 0.001 to 0.1 uM), the VASP1 polypeptide (0.1 to 1.0 mM). (B) ET-precontracted tissues were treated with VASP1 polypeptide alone (0.25 mM), nimodipine alone (0.01 or 0.1 uM), nimodipine (0.01 or 0.1 uM) followed by the VASP1 polypeptide (0.25 mM), [NIMO/VASP1], the VASP1 polypeptide (0.25 mM) followed by nimodipine (0.01 or 0.1 uM), [VASP1/NIMO], or simultaneous addition of nimodipine (0.1 uM) plus the VASP1 polypeptide (0.25 mM) [NIMO+VASP1]. Contractile response was defined by stress, which was calculated using the force generated by the tissues. [10^5 Newtons (N)/m^2]=force (g)×0.0987/area, where area is equal to the wet weight [(mg)/length (mm at maximal length)] divided by 1.055). (A) Percent relaxation were determined as a change to the maximal phenylephrine-induced contraction. Data are reported as mean responses±standard error of the mean. n=2-12.
as §1, with “bath,” for “bath”, “polypeptides or polypeptide-containing nanoparticles” for “polypeptides”, “(N)/m^2]=force” for “(N)/m^2]−force”, “n=2-6.” for “n=3-17.”
Freshly isolated rat aorta denuded of endothelium were suspended in a muscle bath and force generated were recorded. […]

The next test has as its system airway smooth muscle. The test can be described thus: Relaxation of carbachol-precontracted porcine bronchial rings in a muscle bath. In kind it is cell-based. To be noted: polypeptides 0.1 to 1.0 mM (FIG. 8). As for the experimental part: (§2) Bronchial rings were isolated from fresh porcine lung, suspended in a muscle bath, and force generated were recorded. Carbachol-precontracted tissues were treated with escalating doses of the polypeptides indicated (0.1 to 1.0 mM). Contractile response was defined by stress, which was calculated using the force generated by the tissues. [10^5 Newtons (N)/m^2]=force (g)×0.0987/area, where area is equal to the wet weight [(mg)/length (mm at maximal length)] divided by 1.055). Percent relaxation were determined as a change to the maximal carbachol-induced contraction. Data are reported as mean responses±standard error of the mean. n=2-4.
as §2, with “Freshly isolated porcine bronchial” for “Bronchial”, “were” for “were isolated from fresh porcine lung,”, “bath.” for “bath, and force generated were recorded.”, “with” for “with escalating doses of”, “alone (−nife) or 0.1 uM nifedipine followed by the polypeptides (+nife).” for “indicated (0.1 to 1.0 mM).”, “n=1-2.” for “n=2-4.”
Bronchial rings were suspended in the muscle bath and equilibrated for 3 hours at a basal tension of 1 gram. Rings were then contracted with the agonist carbachol (150 nM) and then relaxed with cumulative doses of the polypeptides (0.1 to 1.0 mM).
Porcine bronchial rings were suspended in the muscle bath. Tissues were treated with channel blocker alone, polypeptide alone, or in combination. The results of these study are illustrated in FIG. 9.
Rat aortae were isolated from euthanized female Sprague-Dawley rats. Porcine bronchial rings were isolated from lung obtained from euthanized female Yorkshire pigs.

The mark [1] stands for this setting: phenylephrine or endothelin-1 pre-contracted rat aortic rings.

Entries after “also recorded” stand apart in the source; their conditions may differ. Non-standard residues stand in square brackets, D forms with d. No end group written: not given here. *: point of attachment. Palmitoyl = CCCCCCCCCCCCCCCC(=O)*; pS = N[C@@H](COP(=O)(O)O)C(=O)O

The source of these data is patent US11149064B2, “Vasoactive polypeptides for smooth muscle relaxation” (Vanderbilt University, priority 2016, dated 2021).

Take “YARAAARQARA{K(palm)}GGKLRKV(pS)K (YARAAARQARAK(Palmitoyl)GGKLRKV[pS]K) [SEQ ID NO: 12]”: the “potency in vasorelaxation after chemical or formulatory modification of VASP1” value in the test with rat aortic smooth muscle (setting [1]) is recorded as “directly cause smooth muscle relaxation with enhanced potency”.

For the substance “KLRKV(pS)KLTVK (KLRKV[pS]KLTVK) [SEQ ID NO: 8, phosphopeptide analogue of VASP]”, the “relaxation of airway smooth muscle” value in the test with airway smooth muscle is reported as “directly cause smooth muscle relaxation”. Besides, the “relaxation of rat aortic smooth muscle” value in the test with rat aortic smooth muscle is “directly cause smooth muscle relaxation”. “KLRKV(pS)K (KLRKV[pS]K) [SEQ ID NO: 9, control peptide without transduction domain]”: the “relaxation of rat aortic smooth muscle” value in the test with rat aortic smooth muscle is listed as “do not directly cause relaxation; also recorded: exception”.

As for “YARAAARQARAKLRKV(pS)KQEEA (YARAAARQARAKLRKV[pS]KQEEA) [SEQ ID NO: 6, phosphopeptide analogue of VASP]”, in the test with airway smooth muscle, the “relaxation of airway smooth muscle” value is reported as “directly cause smooth muscle relaxation”. Also, in the test with rat aortic smooth muscle, the “relaxation of rat aortic smooth muscle” value is given as “directly cause smooth muscle relaxation”. Turning to “YARAAARQARA{K(palm)}LRKV(pS)K (YARAAARQARAK(Palmitoyl)LRKV[pS]K) [SEQ ID NO: 11]”, the “potency in vasorelaxation after chemical or formulatory modification of VASP1” value with rat aortic smooth muscle (setting [1]) is reported as “directly cause smooth muscle relaxation with enhanced potency”.

As to “YARAAARQARAIRQTADRWRVSLDVN [SEQ ID NO: 3, peptide analogue of HSP27]”, the “relaxation of airway smooth muscle” value in the test with airway smooth muscle is “directly cause smooth muscle relaxation”. In addition, in the test with rat aortic smooth muscle, the “relaxation of rat aortic smooth muscle” value was “directly cause smooth muscle relaxation”. For “YARAAARQARAA(pS)GVTVSDEVI (YARAAARQARAA[pS]GVTVSDEVI) [SEQ ID NO: 2, phosphopeptide analogue of cofilin]”, in the test on airway smooth muscle, the “relaxation of airway smooth muscle” value is reported as “directly cause smooth muscle relaxation”. The “relaxation of rat aortic smooth muscle” value in the test on rat aortic smooth muscle was “directly cause smooth muscle relaxation”. Consider “YARAAARQARAKLRKV(pS)K (YARAAARQARAKLRKV[pS]K) [SEQ ID NO: 5, phosphopeptide analogue of VASP]”, for which, in the test with airway smooth muscle, the “relaxation of airway smooth muscle” value is reported as “directly cause smooth muscle relaxation”. The “vasorelaxation in combination with calcium channel blocker nimodipine” value with rat aortic smooth muscle (phenylephrine or endothelin-1 pre-contracted rat aortic rings, VASP1 0.25 mM with nimodipine 0.01 or 0.1 uM (FIGS. 4A-5B)) is on record as “works in concert with calcium channel blocker, nimodipine, to enhance vasorelaxation”. The entries for the “relaxation of rat aortic smooth muscle” value in the test with rat aortic smooth muscle and in the test with rat aortic smooth muscle (listed as VASP1) were “directly cause smooth muscle relaxation” and “sequence specific”, respectively. In the case of “YARAAARQARAKLRKV(pS)KQEEASG (YARAAARQARAKLRKV[pS]KQEEASG) [SEQ ID NO: 7, phosphopeptide analogue of VASP]”, the “relaxation of airway smooth muscle” value in the test with airway smooth muscle was “directly cause smooth muscle relaxation”. In addition, the “relaxation of rat aortic smooth muscle” value with rat aortic smooth muscle is “directly cause smooth muscle relaxation”.

On to “YARAAARQARAK(pS)RVLKK (YARAAARQARAK[pS]RVLKK) [SEQ ID NO: 10, control peptide]”, for which the “relaxation of rat aortic smooth muscle” value was “do not directly cause relaxation” in the test on rat aortic smooth muscle and “exception” in the test with rat aortic smooth muscle (listed as scrVASP1). Consider “YARAAARQARAA(pS)GVAVSDG (YARAAARQARAA[pS]GVAVSDG) [SEQ ID NO: 1, phosphopeptide analogue of cofilin]”, for which, in the test with airway smooth muscle, the “relaxation of airway smooth muscle” value is “directly cause smooth muscle relaxation”. The “relaxation of rat aortic smooth muscle” value in the test with rat aortic smooth muscle is listed as “directly cause smooth muscle relaxation”. In the case of “IRQTADRWRVSLDVNLTVK [SEQ ID NO: 4, peptide analogue of HSP27]”, the “relaxation of airway smooth muscle” value in the test on airway smooth muscle is recorded as “directly cause smooth muscle relaxation”. The “relaxation of rat aortic smooth muscle” value with rat aortic smooth muscle is on record as “directly cause smooth muscle relaxation”.
